Laboratory results reported in publication PMC7221592, “Synthesis and Molecular Modelling Studies of New 1,3-Diaryl-5-Oxo-Proline Derivatives as Endothelin Receptor Ligands” (Molecules, 2020).
Square brackets hold non-standard residues; d marks the D form. Peptide text beside a SMILES is read from it.

Target: T1, ETA receptor (ETAR) (Homo sapiens, UniProt P25101)
T1 construct: gene EDNRA
T1 sequence (P25101 21-427): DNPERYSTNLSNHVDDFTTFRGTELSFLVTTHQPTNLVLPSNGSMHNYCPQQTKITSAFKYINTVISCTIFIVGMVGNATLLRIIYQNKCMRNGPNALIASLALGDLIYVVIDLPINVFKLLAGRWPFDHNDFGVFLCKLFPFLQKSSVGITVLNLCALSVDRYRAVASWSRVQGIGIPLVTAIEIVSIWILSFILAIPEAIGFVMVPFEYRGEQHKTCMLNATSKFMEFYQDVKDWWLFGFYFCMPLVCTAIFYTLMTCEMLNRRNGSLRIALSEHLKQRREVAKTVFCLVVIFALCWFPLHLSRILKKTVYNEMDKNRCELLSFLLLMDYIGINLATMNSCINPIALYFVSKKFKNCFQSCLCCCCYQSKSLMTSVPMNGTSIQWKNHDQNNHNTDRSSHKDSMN
Experiment: […]ET-1 radioligand displacement, recombinant human ETA in CHO-K1 cells
Format: cell-based
Settings: read-out: ETAh 10^-5 M ^a

| Compound | Ki [nM] |
| --- | --- |
| COc1ccc(CN2C(=O)C[C@H](c3ccc4c(c3)OCO4)[C@H]2C(=O)O)cc1 (racemic) [31h, (±)-trans 3-(1,3-Benzodioxol-5-yl)-1-[(4-methoxyphenyl)methyl]-5-oxo-proline] | 3300 ± 1100 |
| CC(C)C[C@@H]1NC(=O)[C@@H](C(C)C)NC(=O)[C@@H]2CCCN2C(=O)[C@@H](CC(=O)O)NC(=O)[C@@H](Cc2c[nH]c3ccccc23)NC1=O [BQ-123] (cyclo(L[dW][dD]P[dV])) | 5.4 ± 0.8 |
